# Laboratory results taken from patent publication US20220218852A1, “NOVEL RADIOLABELLED CXCR4-TARGETING COMPOUNDS FOR DIAGNOSIS AND THERAPY” (PROVINCIAL HEALTH SERVICES AUTHORITY, priority 2019, published 2022).
# Like-named read-outs stand apart in the source and are kept apart here. Positions of bridges follow the written chain, without caps; N, C: chain ends. Non-standard residues stand in square brackets, D forms with d. Residues, ends and D or L forms follow the SMILES beside them. Groups on a side chain read outwards from the residue. *: point of attachment. DOTA = O=C(O)CN1CCN(CC(=O)O)CCN(CC(=O)*)CCN(CC(=O)O)CC1; 2Nal = N[C@@H](Cc1ccc2ccccc2c1)C(=O)O; Lys(iPr) = CC(C)NCCCC[C@H](N)C(=O)O
# Key:
# [1] = Biodistribution in Z138 tumor-bearing mice; assay type: in vivo; settings: male, NOD.Cg-Rag1tm1Mom Il2rgtm1Wjl/SzJ (NRG), mouse, iv, total radioactivity
# Protocol: (§1) For Daudi, Z138, GRANTA519 and Jeko1 xenografts, male NOD.Cg-Rag1^tm1MomII2rg^tm1Wjl/SzJ (NRG) mice were subcutaneously inoculated on the left flank with 5×10^6 cells (100 μL; 1:1 ratio of PBS/Matrigel) and tumors were grown to a size of 200-500 mm^3. For PC-3 xenografts, male NOD.Cg-Rag1^tm1MomII2rg^tm1Wjl/SzJ (NRG) mice were subcutaneously inoculated on the left flank with 5×10^6 PC-3 cells (100 μL; 1:1 ratio of PBS/Matrigel) and tumors were grown to a size of 200-400 mm^3.
# (§2) The mice were euthanized via CO2 inhalation while anesthetized with isoflurane. Tissues were harvested, washed in PBS, blotted dry, weighed, and measured on a Hidex AMG Automatic Gamma Counter.
# [2] = system: Z138 mantle cell lymphoma xenografts; test: Biodistribution in Z138 tumor-bearing mice; assay type: in vivo
# Protocol: as §1, §2
# [3] = liver, read-out: Biodistribution Liver
# [4] = lung, read-out: Biodistribution Lung
# [5] = muscle, read-out: Biodistribution Muscle
# [6] = pancreas, read-out: Biodistribution Pancreas
# [7] = spleen, read-out: Biodistribution Spleen
smiles,measurement,setting,value
"CC(C)NCCCC[C@@H]1NC(=O)[C@H](Cc2ccc(O)cc2)NC(=O)[C@H](Cc2ccccc2)NC(=O)CC[C@H](C(=O)N[C@@H](CCCCNC(C)C)C(=O)N[C@@H](CCCCNC(=O)[C@H](CCC(=O)O)NC(=O)[C@H](CCC(=O)O)NC(=O)[C@H](CCC(=O)O)NC(=O)CN2CCN(CC(=O)O)CCN(CC(=O)O)CCN(CC(=O)O)CC2)C(N)=O)NC(=O)CNC(=O)[C@H](Cc2ccc3ccccc3c2)NC(=O)[C@@H](CCCNC(=N)N)NC1=O [[^177Lu]Lu-BL02, metal not drawn] (FY[Lys(iPr)][dR][2Nal]G[dE][Lys(iPr)]K([Glu-Glu-Glu-DOTA])-NH2; lactam N-7)",tissue uptake at 1 h,"[1]; liver, 1 h, read-out: Biodistribution Liver",0.93 %ID/g
same,tissue uptake at 1 h,"[1]; liver, 1 h blocked, read-out: Biodistribution Liver",0.99 %ID/g
same,tissue uptake at 4 h,[1]; [3],0.92 %ID/g
same,tissue uptake at 24 h,[1]; [3],0.703 %ID/g
same,tissue uptake at 72 h,[1]; [3],0.436 %ID/g
same,tissue uptake at 1 h,"[1]; lung, 1 h, read-out: Biodistribution Lung",0.83 %ID/g
same,tissue uptake at 1 h,"[1]; lung, 1 h blocked, read-out: Biodistribution Lung",1.57 %ID/g
same,tissue uptake at 4 h,[1]; [4],0.26 %ID/g
same,tissue uptake at 24 h,[1]; [4],0.176 %ID/g
same,tissue uptake at 72 h,[1]; [4],0.184 %ID/g
same,tissue uptake at 1 h,"[1]; muscle, 1 h, read-out: Biodistribution Muscle",0.1 %ID/g
same,tissue uptake at 1 h,"[1]; muscle, 1 h blocked, read-out: Biodistribution Muscle",0.45 %ID/g
same,tissue uptake at 4 h,[1]; [5],0.03 %ID/g
same,tissue uptake at 24 h,[1]; [5],0.019 %ID/g
same,tissue uptake at 72 h,[1]; [5],0.01 %ID/g
same,tissue uptake at 1 h,"[1]; pancreas, 1 h, read-out: Biodistribution Pancreas",0.14 %ID/g
same,tissue uptake at 1 h,"[1]; pancreas, 1 h blocked, read-out: Biodistribution Pancreas",0.31 %ID/g
same,tissue uptake at 4 h,[1]; [6],0.04 %ID/g
same,tissue uptake at 24 h,[1]; [6],0.034 %ID/g
same,tissue uptake at 72 h,[1]; [6],0.016 %ID/g
same,tissue uptake at 1 h,"[1]; spleen, 1 h, read-out: Biodistribution Spleen",0.56 %ID/g
same,tissue uptake at 1 h,"[1]; spleen, 1 h blocked, read-out: Biodistribution Spleen",0.56 %ID/g
same,tissue uptake at 4 h,[1]; [7],0.33 %ID/g
same,tissue uptake at 24 h,[1]; [7],0.277 %ID/g
same,tissue uptake at 72 h,[1]; [7],0.288 %ID/g
same,Ratio Tumour:Blood,[2]; 1 h,38.98
same,Ratio Tumour:Bone,[2]; 1 h,74.82
same,Ratio Tumour:Liver,[2]; 1 h,18.53
same,Ratio Tumour:Lung,[2]; 1 h,21.08
same,Ratio Tumour:Muscle,[2]; 1 h,166.59
same,Ratio Tumour:Spleen,[2]; 1 h,33.05
same,Ratio Tumour:Blood,[2]; 1 h blocked,2.74
same,Ratio Tumour:Bone,[2]; 1 h blocked,9.53
same,Ratio Tumour:Liver,[2]; 1 h blocked,3.84
same,Ratio Tumour:Lung,[2]; 1 h blocked,2.75
same,Ratio Tumour:Muscle,[2]; 1 h blocked,13.22
same,Ratio Tumour:Spleen,[2]; 1 h blocked,6.87
same,Ratio Tumour:Blood,[2]; 4 h,627.62
same,Ratio Tumour:Bone,[2]; 4 h,145.11
same,Ratio Tumour:Liver,[2]; 4 h,16.93
same,Ratio Tumour:Lung,[2]; 4 h,60.62
same,Ratio Tumour:Muscle,[2]; 4 h,503.09
same,Ratio Tumour:Spleen,[2]; 4 h,49.43
same,Ratio Tumour:Blood,[2]; 24 h,873.49
same,Ratio Tumour:Bone,[2]; 24 h,109.48
same,Ratio Tumour:Liver,[2]; 24 h,12.51
same,Ratio Tumour:Lung,[2]; 24 h,52.72
same,Ratio Tumour:Muscle,[2]; 24 h,463.22
same,Ratio Tumour:Spleen,[2]; 24 h,31.90
same,Ratio Tumour:Blood,[2]; 72 h,613.24
same,Ratio Tumour:Bone,[2]; 72 h,68.39
same,Ratio Tumour:Liver,[2]; 72 h,8.32
same,Ratio Tumour:Lung,[2]; 72 h,21.59
same,Ratio Tumour:Muscle,[2]; 72 h,358.55
same,Ratio Tumour:Spleen,[2]; 72 h,13.86
